Assay: physchem
Details: pH 6

Row | Molecule | solubility [µg/mL]
1 | H-SLRNNMFEISDRFIGIYKTYNITK-OH | > 2000
2 | H-PAHPSQGAVPPSRAAAEPHLKPSPSELQTA-OH | > 2000
3 | H-TIKNSDKNVVLEHFG-OH | > 2000
4 | H-AVGATKVPRNQDWLGVSRQL-OH | > 2000
5 | H-FLLQVPGSPVVSPSA-OH | > 2000
6 | H-RARQILIASHLPFYELRHNQVES-OH | > 2000
7 | H-SLTEESGGAVAFFPGNLSTSSSA-OH | > 2000
8 | H-KQYLDHSGNLMSMHNIKIFMFQLLRG-OH | < 2000
9 | H-VEQGHVRVGPDVVTHPAFLV-OH | > 2000
10 | H-WCTEMKRVFGFPVHYTDVSNMS-OH | > 2000
11 | H-ALLQNVELRRNVLVSPTPLAN-OH | > 2000
12 | H-STQHADLTIIDNIKEMNFLRRYK-OH | > 2000
13 | H-DHAPEFPAREMLLKYQKLLCQERYFL-OH | < 2000
14 | H-WTPAAPTAMAEVGPGHTPAHPSQGAVPP-OH | > 2000
15 | H-RPAGRTQLLWTPAAPTAMAEVGPGHTP-OH | > 2000
16 | H-LPDEVSGLEQLESIINFEKLTEWTSSNVME-OH | > 2000
17 | H-MPPPGALMGLALKKKSIPQPTN-OH | > 2000
18 | H-TKDRDLLVVAHDLIWKMSPRTGDAKPS-OH | > 2000
19 | H-NHSAKFLKELTLAMDELEENFRG-OH | < 2000
20 | H-SHQIHSYQLYTHPLLHPWDHRD-OH | > 2000
21 | H-NNGPVTILQRIHHMAASHVNITS-OH | < 2000

Continued, values first:

Row | solubility [µg/mL] | Molecule
22 | > 2000 | H-ARLQSKEYPVIFKSIMRQRLISPQL-OH
23 | > 2000 | H-PLMQTELHQLVPEADPEEMA-OH
24 | < 2000 | H-ERLSIQNFSKLLNDNIFYMS-OH
25 | > 2000 | H-EVVGGYTWPSGNIYQGYWAQGKR-OH
26 | > 2000 | H-SGARIGAPPPHATATSSSSFMPGTWGREDL-OH
27 | > 2000 | H-VKQLERGEASVVDFKKNLEYAAT-OH
28 | > 2000 | H-TNGPEKNSSSFPSSVDYAASGPRKL-OH
29 | > 2000 | H-GSTLSPVPWLPSEEFTLWSSLSPPG-OH
30 | > 2000 | H-AASAAAFPSQRTSWEFLQSLVSIKQEK-OH
31 | > 2000 | H-GLTRISIQRAQPLPPCLPSFRPPTALQGLS-OH
32 | > 2000 | H-GSGSQMPAWRTRGAISASSTQKTPTTRL-OH
33 | > 2000 | H-NQVLASRYGIRGFSTIKIFQKGESPV-OH
34 | > 2000 | H-VAGLAASGLHGSAWLVPGEQPVSGPHHGKQ-OH
35 | > 2000 | H-DVTGPHLYSIYLHGSTDKLPYVTMGS-OH
36 | > 2000 | H-SKRGVGAKTLLLPDPFLFWPCLEGTRRSL-OH
37 | > 2000 | H-YLLPKTAVVLRCPALRVRKP-OH

Row | solubility [µg/mL] | Molecule
38 | > 2000 | H-HKSIGQPKLSTHPFLCPKPQKMNTSLGQHLTL-OH
39 | < 2000 | H-GLEQLESIINFEKLTEWTSS-OH
40 | > 2000 | H-FAKGFRESDLNSWPVAPRPLLSV-OH
41 | > 2000 | H-FVGKLQRHPVAVDVLL-OH
42 | > 2000 | H-GAVGATKVPRNQDWL-OH
43 | > 2000 | H-SEIDFPMARSKLLKKKLPSKDL-OH
44 | < 2000 | H-TTSGDERLYPSPTFYIHENYLQLFE-OH
45 | > 2000 | H-VSWGKKVQPIDSILADWNEDIEAFEMMEKD-OH
46 | > 2000 | H-DNHLRRNRLIVVDLFHGQL-OH
47 | > 2000 | H-VSGLEQLESIINFEKL-OH
48 | > 2000 | CC(C)C[C@H](NC(=O)[C@H](C)N)C(=O)N[C@@H](CCC(=O)O)C(=O)N[C@@H](CCC(=O)O)C(=O)N[C@@H](CCCCN)C(=O)N[C@@H](CCCCN)C(=O)NCC(=O)N[C@@H](CC(N)=O)C(=O)N[C@@H](Cc1ccc(O)cc1)C(=O)N[C@H](C(=O)N[C@H](C(=O)N[C@H](C(=O)N[C@@H](CC(=O)O)C(=O)N[C@@H](Cc1c[nH]cn1)C(=O)NCC(=O)N[C@@H](CO)C(=O)N[C@@H](CS)C(=O)N[C@H](C(=O)O)C(C)C)[C@@H](C)O)C(C)C)C(C)C
49 | > 2000 | H-PSTANYNSFSSAPMPQIPVASVTPT-OH
50 | > 2000 | H-TFPKKIQMLARDFLDEY-OH
51 | > 2000 | H-KKNITNLSRLVVRPDTDAVY-OH
52 | > 2000 | H-SHHTHSYQRYSHPLFLPGHRLDPPI-OH

From patent US20190060428A1, “FORMULATIONS FOR NEOPLASIA VACCINES AND METHODS OF PREPARING THEREOF” (The Broad Institue Inc., priority 2015, published 2019)
